Measurements from publication PMC11474200, “Probing the nucleobase selectivity of RNA polymerases with dual-coding substrates” (The Journal of Biological Chemistry, 2024).
Where two headings read alike, the source gives them in different places.

How the values were obtained:
Assay type in all cases: biochemical
[1] = target: T1, Mt-DdRP (Homo sapiens, UniProt O00411); experiment: single-nucleotide addition, denaturing PAGE; settings: elongation complex, 100 μM analog, 1 min, 10 mM MgCl2, pH 7.5, 25 °C
T1 construct: gene POLRMT; expressed in E. coli from pRP009, Ni-, heparin and S-sepharose purified; in assembled elongation complex

[2] = target: T2, Ec-DdRP (Escherichia coli, UniProt P0A8T7+P0A8V2)
T2 construct: gene rpoB; multisubunit RNAP without added sigma, in assembled elongation complex; expressed in E. coli T7 Express from pVS10, Ni-, heparin and Q-sepharose purified; with DNA-directed RNA polymerase subunit alpha; DNA-directed RNA polymerase subunit omega

[3] = target: T2, Ec-DdRP; remark: listed apart in the source
[4] = elongation complex, FOR as A-substitute (incorporation rate 27 s^-1), 10 mM MgCl2, pH 7.5, 25 °C

T2 sequence (P0A7Z4 whole entry): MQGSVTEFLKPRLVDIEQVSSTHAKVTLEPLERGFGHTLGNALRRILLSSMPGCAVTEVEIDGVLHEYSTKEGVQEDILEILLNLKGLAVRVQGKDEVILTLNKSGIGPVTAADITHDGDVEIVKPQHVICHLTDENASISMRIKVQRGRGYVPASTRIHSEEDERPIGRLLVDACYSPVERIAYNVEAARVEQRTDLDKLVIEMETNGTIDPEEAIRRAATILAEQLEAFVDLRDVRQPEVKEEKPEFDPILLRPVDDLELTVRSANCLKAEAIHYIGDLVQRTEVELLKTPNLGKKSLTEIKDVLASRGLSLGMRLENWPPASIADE
T2 sequence (P0A8T7 whole entry): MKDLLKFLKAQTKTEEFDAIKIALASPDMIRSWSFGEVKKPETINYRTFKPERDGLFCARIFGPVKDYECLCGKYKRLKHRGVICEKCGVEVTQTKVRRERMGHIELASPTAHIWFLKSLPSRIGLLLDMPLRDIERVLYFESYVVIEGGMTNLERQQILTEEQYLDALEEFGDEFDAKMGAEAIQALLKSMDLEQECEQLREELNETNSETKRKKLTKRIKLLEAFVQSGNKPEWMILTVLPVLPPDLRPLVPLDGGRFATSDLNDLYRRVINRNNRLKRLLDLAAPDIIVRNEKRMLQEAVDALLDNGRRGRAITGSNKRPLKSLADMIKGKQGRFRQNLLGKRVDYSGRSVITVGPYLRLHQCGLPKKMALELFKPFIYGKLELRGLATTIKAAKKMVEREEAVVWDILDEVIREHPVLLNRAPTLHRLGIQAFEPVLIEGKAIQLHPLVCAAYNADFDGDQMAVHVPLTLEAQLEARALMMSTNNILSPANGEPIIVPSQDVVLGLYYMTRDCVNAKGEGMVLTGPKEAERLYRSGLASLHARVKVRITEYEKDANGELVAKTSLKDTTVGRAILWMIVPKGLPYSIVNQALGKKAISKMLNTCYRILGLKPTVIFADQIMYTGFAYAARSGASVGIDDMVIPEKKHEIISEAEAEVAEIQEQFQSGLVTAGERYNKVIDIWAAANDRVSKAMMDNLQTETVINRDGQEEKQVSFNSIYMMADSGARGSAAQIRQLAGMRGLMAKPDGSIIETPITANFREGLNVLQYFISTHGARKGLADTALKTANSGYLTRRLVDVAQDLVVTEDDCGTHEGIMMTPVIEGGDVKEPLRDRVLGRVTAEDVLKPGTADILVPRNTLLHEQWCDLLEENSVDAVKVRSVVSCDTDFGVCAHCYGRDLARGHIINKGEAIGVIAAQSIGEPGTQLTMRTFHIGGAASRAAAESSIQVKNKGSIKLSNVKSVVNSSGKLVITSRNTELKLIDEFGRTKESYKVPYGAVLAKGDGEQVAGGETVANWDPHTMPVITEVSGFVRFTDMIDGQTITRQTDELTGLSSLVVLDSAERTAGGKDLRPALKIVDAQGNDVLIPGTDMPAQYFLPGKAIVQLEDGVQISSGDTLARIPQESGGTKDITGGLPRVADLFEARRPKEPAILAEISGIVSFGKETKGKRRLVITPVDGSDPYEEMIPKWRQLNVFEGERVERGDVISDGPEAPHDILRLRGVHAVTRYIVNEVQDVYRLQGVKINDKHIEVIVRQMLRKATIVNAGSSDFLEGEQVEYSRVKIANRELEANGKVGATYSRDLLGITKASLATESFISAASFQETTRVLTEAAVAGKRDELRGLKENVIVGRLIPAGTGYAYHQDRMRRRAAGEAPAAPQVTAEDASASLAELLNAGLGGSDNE
T2 sequence (P0A8V2 whole entry): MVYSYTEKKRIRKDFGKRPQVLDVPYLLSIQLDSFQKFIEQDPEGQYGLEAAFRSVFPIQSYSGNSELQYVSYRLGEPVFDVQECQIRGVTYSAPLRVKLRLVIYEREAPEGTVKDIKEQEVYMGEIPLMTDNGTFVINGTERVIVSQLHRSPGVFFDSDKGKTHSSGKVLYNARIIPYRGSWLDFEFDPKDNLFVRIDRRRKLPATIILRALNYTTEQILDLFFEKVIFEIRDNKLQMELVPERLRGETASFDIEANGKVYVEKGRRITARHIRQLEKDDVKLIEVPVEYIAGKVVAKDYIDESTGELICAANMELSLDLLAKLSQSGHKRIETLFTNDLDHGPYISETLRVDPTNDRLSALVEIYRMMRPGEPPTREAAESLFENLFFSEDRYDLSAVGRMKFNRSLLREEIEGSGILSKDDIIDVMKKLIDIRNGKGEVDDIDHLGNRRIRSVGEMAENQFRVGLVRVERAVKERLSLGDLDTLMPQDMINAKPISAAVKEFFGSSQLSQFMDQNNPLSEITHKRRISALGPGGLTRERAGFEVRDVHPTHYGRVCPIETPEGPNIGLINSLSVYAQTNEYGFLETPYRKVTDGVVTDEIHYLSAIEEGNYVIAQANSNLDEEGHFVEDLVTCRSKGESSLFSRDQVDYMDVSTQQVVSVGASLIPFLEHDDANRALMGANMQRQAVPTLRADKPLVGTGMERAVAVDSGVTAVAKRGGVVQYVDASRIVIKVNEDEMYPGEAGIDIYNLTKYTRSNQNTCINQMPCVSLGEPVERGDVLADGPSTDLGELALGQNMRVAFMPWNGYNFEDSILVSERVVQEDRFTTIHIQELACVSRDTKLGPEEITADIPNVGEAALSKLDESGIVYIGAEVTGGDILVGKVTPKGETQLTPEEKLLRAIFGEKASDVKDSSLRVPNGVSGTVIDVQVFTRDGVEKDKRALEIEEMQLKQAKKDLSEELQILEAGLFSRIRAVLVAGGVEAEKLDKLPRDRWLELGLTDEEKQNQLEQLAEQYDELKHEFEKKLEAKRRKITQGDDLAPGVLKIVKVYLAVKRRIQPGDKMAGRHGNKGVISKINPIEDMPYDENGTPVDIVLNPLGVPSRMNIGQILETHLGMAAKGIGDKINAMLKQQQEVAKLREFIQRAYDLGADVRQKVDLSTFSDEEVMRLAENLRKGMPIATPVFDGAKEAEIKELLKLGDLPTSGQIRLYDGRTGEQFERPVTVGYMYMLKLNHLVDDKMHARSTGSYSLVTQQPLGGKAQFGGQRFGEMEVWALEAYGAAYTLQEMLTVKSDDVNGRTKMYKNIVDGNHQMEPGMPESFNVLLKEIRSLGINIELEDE
T2 sequence (P0A800 2-91, further chain): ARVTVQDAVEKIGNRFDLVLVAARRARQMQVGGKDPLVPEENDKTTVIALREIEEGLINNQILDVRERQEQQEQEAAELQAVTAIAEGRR
T1 sequence (O00411 42-1230): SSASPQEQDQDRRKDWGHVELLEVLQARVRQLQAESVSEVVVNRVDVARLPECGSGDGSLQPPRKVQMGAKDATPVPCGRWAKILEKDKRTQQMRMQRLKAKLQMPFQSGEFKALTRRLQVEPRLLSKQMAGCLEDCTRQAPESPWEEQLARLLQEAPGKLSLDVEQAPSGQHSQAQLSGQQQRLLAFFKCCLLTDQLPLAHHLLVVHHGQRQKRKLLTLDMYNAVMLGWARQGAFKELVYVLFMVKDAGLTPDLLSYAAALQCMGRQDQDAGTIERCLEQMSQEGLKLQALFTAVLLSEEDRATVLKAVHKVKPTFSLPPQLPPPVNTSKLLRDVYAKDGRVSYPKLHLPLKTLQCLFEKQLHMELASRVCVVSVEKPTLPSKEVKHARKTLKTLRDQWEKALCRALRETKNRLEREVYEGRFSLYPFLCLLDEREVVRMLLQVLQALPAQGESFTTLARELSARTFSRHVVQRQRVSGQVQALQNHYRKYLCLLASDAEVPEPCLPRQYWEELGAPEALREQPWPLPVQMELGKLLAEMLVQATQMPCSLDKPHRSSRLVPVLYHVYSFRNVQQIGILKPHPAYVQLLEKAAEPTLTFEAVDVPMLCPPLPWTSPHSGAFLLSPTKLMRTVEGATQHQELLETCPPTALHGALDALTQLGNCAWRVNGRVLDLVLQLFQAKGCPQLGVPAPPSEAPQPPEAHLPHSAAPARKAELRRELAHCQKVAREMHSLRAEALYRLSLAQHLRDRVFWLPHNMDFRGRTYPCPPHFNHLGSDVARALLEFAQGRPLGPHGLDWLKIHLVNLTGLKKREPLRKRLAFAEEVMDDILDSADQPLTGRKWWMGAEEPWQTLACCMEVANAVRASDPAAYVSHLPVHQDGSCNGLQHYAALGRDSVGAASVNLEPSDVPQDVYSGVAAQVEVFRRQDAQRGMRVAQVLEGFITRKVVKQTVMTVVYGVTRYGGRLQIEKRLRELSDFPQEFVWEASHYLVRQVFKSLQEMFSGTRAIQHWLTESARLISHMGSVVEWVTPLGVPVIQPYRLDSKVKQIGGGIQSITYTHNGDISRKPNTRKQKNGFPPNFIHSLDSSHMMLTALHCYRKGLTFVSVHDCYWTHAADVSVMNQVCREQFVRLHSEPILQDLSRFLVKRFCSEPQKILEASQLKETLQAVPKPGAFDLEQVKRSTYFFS

SMILES: NC(=O)c1[nH]nc([C@@H]2O[C@H](COP(=O)(O)OP(=O)(O)OP(=O)(O)O)[C@@H](O)[C@H]2O)c1O (mixture of isomers) [PYR 5′-triphosphate]
- single-nucleotide addition, denaturing PAGE ([1]; incorporated in place of uridine): all RNAPs in our set incorporated PYR in place of uridine

SMILES: Nc1ncnc2c([C@@H]3O[C@H](COP(=O)(O)OP(=O)(O)OP(=O)(O)O)[C@@H](O)[C@H]3O)n[nH]c12 [FOR triphosphate]
- koff [2, 4]: 74 to 220 s⁻¹
- kon [3, 4]: 3.1e+06 to 6.6e+06 M⁻¹ s⁻¹
- single-nucleotide addition, denaturing PAGE ([1]; incorporated in place of adenine): FOR was incorporated in place of adenine by all RNAPs in our set

SMILES: Nc1ncnc2c1ncn2[C@@H]1O[C@H](COP(=O)(O)OP(=O)(O)OP(=O)(O)O)[C@@H](O)[C@H]1O [ATP]
- koff [2]: 5.6 to 19 s⁻¹
- kon [3]: 1.2e+06 to 1.5e+06 M⁻¹ s⁻¹
